The record followed here is ChEMBL document CHEMBL3046281, “Nitrogen Analogues of Aldrin as Noncompetitive Antagonists of GABAA Receptor” (J Pestic Sci, 1995).

One assay relates to Musca domestica. In words: Insecticidal activity against WHO susceptible Musca domestica (house fly) assessed as compound level causing mortality per fly applied through topical application. The class given is functional.
Assay [1] deals with GABA-A receptor; anion channel (Rattus norvegicus) (UniProt O09028+P15431+P18506+P18508+P19969+P20236+P23574+P23576+P28471+P28473+P30191+P62813+P63079+P63138+Q91ZM7+Q9ES14). As to the kind of experiment: Competitive inhibition of [35S]TBPS binding to gamma-aminobutyric acid type-A receptor in Rattus norvegicus (rat) brain membranes at 50 nM incubated for 90 min by Scatchard plot. The note with it: Membrane.

Assay [2] addresses GABA-A receptor; anion channel. As to the kind of experiment: Displacement of [35S]TBPS from gamma-aminobutyric acid type-A receptor in Rattus norvegicus (rat) brain membranes incubated for 90 min by liquid scintillation counting method. The arrangement: species or system Membrane.

Calls of active or inactive are those of the source. The calls are words filed in the database; no cut-off is given here.

Broadly, the IC50 is the concentration that inhibits the measured activity by half. Read a high IC50 as lower potency.

With `ClC1=C(Cl)[C@]2(Cl)[C@H]3[C@H]([C@@H]4C[C@H]3N=N4)[C@@]1(Cl)C2(Cl)Cl`, in the assay on Musca domestica, the LD50 is on record as 2.8 ng. The inhibition entry in assay [1] is “Active”. The compound also displayed a half-inhibitory concentration (IC50) in assay [2] of 48.4 nM.

For `[O-][N+]1=N[C@@H]2C[C@H]1[C@H]1[C@@H]2[C@@]2(Cl)C(Cl)=C(Cl)[C@]1(Cl)C2(Cl)Cl` (relative stereo), in the assay with Musca domestica, the LD50 turned out to be 3.1 ng. In assay [2], this compound yielded an IC50 of 119 nM.

With `ClC1=C(Cl)[C@]2(Cl)[C@@H]3[C@@H]4CC[C@@H](C4)[C@@H]3[C@@]1(Cl)C2(Cl)Cl` [REL-ALDRIN], the LD50 with Musca domestica is 18.5 ng. Further, the IC50 in assay [2] was 53.7 nM.
